According to patent US5023263A, “42-oxorapamycin” (American Home Products Corporation, priority 1990, dated 1991):
≈ marks a conversion by molar mass, not a printed value.

Legend:
[1] = test system: mixed lymphocyte reaction (popliteal lymph node); assay: in vivo popliteal lymph node (PLN) test procedure (mixed lymphocyte reaction); set-up: species or system mice (irradiated BALB/c spleen cells into C3H recipients); conditions: for PLN (ratio): Table 1, daily p.o. Day 0 to Day 4
Experimental: (§1) Immunosuppressive activity was evaluated in an in vitro standard pharmacological test procedure to measure lymphocyte proliferation (LAF) and in two in vivo standard pharmacological test procedures. The first in vivo procedure was a popliteal lymph node (PLN) test procedure which measured the effect of compounds of this invention on a mixed lymphocyte reaction and the second in vivo procedure evaluated the survival time of a pinch skin graft.
A mixed lymphocyte reaction (MLR) occurs when lymphoid cells from genetically distinct animals are combined in tissue culture. Each stimulates the other to undergo blast transformation which results in increased DNA synthesis that can be quantified by the incorporation of tritiated thymidine. Since stimulating a MLR is a function of disparity at Major Histocompatibility antigens, an in vivo popliteal lymph node (PLN) test procedure closely correlates to host vs. graft disease. Briefly, irradiated spleen cells from BALB/c donors are injected into the right hind foot pad of recipient C3H mice. The drug is given daily, p.o. from Day 0 to Day 4. On Day 3 and Day 4, tritiated thymidine is given i.p., b.i.d. On Day 5, the hind popliteal lymph nodes are removed and dissolved, and radioactivity counted. The corresponding left PLN serves as the control for the PLN from the injected hind foot. Percent suppression is calculated using the non-drug treated animals as allogenic control. […] Results are expressed by the following ratio: [formula]

[2] = test system: Candida albicans ATCC 10231; assay: antifungal plate assay (MIC); assay type: cell-based; conditions: ATCC10231, plate disk assay
Experimental: (§2) The following represents the typical assay procedure used. Compound to be tested was placed on sterile dried 1/4" plate disks, and allowed to dry. Agar plates were seeded with fungi and allowed to solidify. The impregnated disks were placed on the seeded Agar surface and incubated for the time required for the particular culture. Results are expressed in MIC (μg/ml) to inhibit growth.

[3] = test system: Candida albicans 3669; assay: antifungal plate assay (MIC); assay type: cell-based; conditions: strain 3669, plate disk assay
Experimental: as §2

[4] = test system: Candida albicans ATCC 38248; assay: antifungal plate assay (MIC); assay type: cell-based; conditions: ATCC38248, plate disk assay
Experimental: as §2

[5] = test system: Candida albicans ATCC 38247; assay: antifungal plate assay (MIC); assay type: cell-based; conditions: ATCC38247, plate disk assay
Experimental: as §2

[6] = test system: Candida albicans ATCC 38246; assay: antifungal plate assay (MIC); assay type: cell-based; conditions: ATCC38246, plate disk assay
Experimental: as §2

[7] = test system: pinch skin graft; assay: survival time of pinch skin graft; assay type: in vivo, mice (male DBA/2 donors, male BALB/c recipients)
Experimental: as §1
The second in vivo test procedure is designed to determine the survival time of pinch skin graft from male DBA/2 donors transplanted to male BALB/c recipients. The method is adapted from Billingham R. E. and Medawar P. B., J. Exp. Biol. 28:385-402, (1951). Briefly, a pinch skin graft from the donor is grafted on the dorsum of the recipient as a homograft, and an autograft is used as control in the same region. […] Untreated recipients serve as rejection control. The graft is monitored daily and observations are recorded until the graft becomes dry and forms a blackened scab. This is considered as the rejection day. The mean graft survival time (number of days ±S.D.) of the drug treatment group is compared with the control group.

[8] = test system: transplant rejection; conditions: cited from earlier work
[9] = test system: Candida albicans; conditions: in vitro and in vivo; cited from earlier work
[10] = test system: IgE-like antibodies; conditions: in vivo; cited from earlier work
[11] = test system: adjuvant arthritis; conditions: model for rheumatoid arthritis; cited from earlier work
[12] = test system: experimental allergic encephalomyelitis; conditions: model for multiple sclerosis; cited from earlier work

SMILES	PLN test result in words ([1]; interpretation of negative PLN ratio)	PLN (ratio) [1]	MIC [2] [µg/mL]	MIC [3] [µg/mL]	MIC [4] [µg/mL]	MIC [5] [µg/mL]	MIC [6] [µg/mL]	Skin Graft survival time (days + SD) ([7]; mean ± S.D., intraperitoneally) [days]	survival time of the skin graft, in words ([7]; vs rejection within 6-7 days without immunosuppressive agent)	Percent suppression (PLN) ([1]; 6 mg/kg, p.o., vs non-drug treated allogenic control) [%]	inhibition of transplant rejection [8]	antifungal activity [9]	inhibition of formation of IgE-like antibodies [10]	effect in adjuvant arthritis model [11]	effect in experimental allergic encephalomyelitis model [12]
CO[C@H]1C[C@@H]2CC[C@@H](C)[C@@](O)(O2)C(=O)C(=O)N2CCCC[C@H]2C(=O)O[C@H]([C@H](C)C[C@@H]2CCC(=O)[C@H](OC)C2)CC(=O)[C@H](C)/C=C(\C)[C@@H](O)[C@@H](OC)C(=O)[C@H](C)C[C@H](C)/C=C/C=C/C=C/1C [42-oxorapamycin]	may cause T cell proliferation	-0.93	0.006 (≈ 0.00658 µM)	0.05 (≈ 0.0548 µM)	0.025 (≈ 0.0274 µM)	0.125 (≈ 0.137 µM)	0.05 (≈ 0.0548 µM)	10.17 ± 0.41	increased survival time	–	–	–	–	–	–
CO[C@H]1C[C@@H]2CC[C@@H](C)[C@@](O)(O2)C(=O)C(=O)N2CCCC[C@H]2C(=O)O[C@H]([C@H](C)C[C@@H]2CC[C@@H](O)[C@H](OC)C2)CC(=O)[C@H](C)/C=C(\C)[C@@H](O)[C@@H](OC)C(=O)[C@H](C)C[C@H](C)/C=C/C=C/C=C/1C [Rapamycin, rapamycin]	–	1.0	0.003 (≈ 0.00328 µM)	0.025 (≈ 0.0273 µM)	0.006 (≈ 0.00656 µM)	0.003 (≈ 0.00328 µM)	0.025 (≈ 0.0273 µM)	–	–	86	effective in inhibiting transplant rejection	antifungal activity	effectively inhibited	effective	effective
